According to US20190209548A1, “LINKED DIARYL COMPOUNDS WITH ANTICANCER PROPERTIES AND METHODS OF USING THE SAME” (University of Maryland, College Park, priority 2014, published 2019):
Values joined by “and” are separate entries in the source; they are usually repeats but may differ in a detail not shown here. Equal values may be shown once. Read-outs that look alike come from different tables or passages of the source.

Tests used:
[1] = system: F21T; experiment: FRET melting assay, F21T; assay type: binding; conditions: dual-labeled DNA 0.2 μM, DMZ analogues 1 μM, potassium cacodylate 60 mM pH 7.2
Experimental: (§1) Fluorescence resonance energy transfer (FRET) assay to determine Tm in absence and presence of ligands. Dual-labelled DNA was diluted from stock (50 μM) to 400 nM in 60 mM potassium cacodylate buffer (pH 7.2) and then annealed by heating at 85° C. for 10 min followed by cooling to room temperature in the heating block. Compounds were diluted from stock (20 mM in DMSO) to 2 μM in 60 mM cacodylate buffer (pH 7.2). 25 μL annealed DNA was added to 96-well plate followed by 25 μL diluted compounds. The sequences of labelled oligonucleotides were as follows: F21T 21-mer (5′-FAM-GGGTTAGGGTTAGGGTTAGGG-TAMRA-3′) (SEQ ID NO:11), c-kit2 26-mer (5′-FAM-CCCGGGCGGGCGCGAGGGAGGGGAGG-TAMRA-3′) (SEQ ID NO:12), k-RAS21R 21-mer (5′-FAM-AGGGCGGTGTGGGAAGAGGGA-TAMRA-3′) (SEQ ID NO:13), c-MYC 22-mer (5′-FAM-TGAGGGTGGGTAGGGTGGGTAA-TAMRA-3′) (SEQ ID NO:14) and duplex 26-mer (5′-FAM-TATAGCTATATTTTTTTATAGCTATA-TAMRA-3′) (SEQ ID NO: 15). Measurements were made in triplicate by using a LightCycler 480 System RT-PCR machine (Roche) and average values were reported. Fluorescence readings were made with excitation at 450-495 nm and detection at 515-545 nm, taken at intervals of 1.2° C./min in the range 25° C. to 95° C.

[2] = system: c-MYC; experiment: FRET melting assay, c-MYC; assay type: binding; conditions: dual-labeled DNA 0.2 μM, DMZ analogues 1 μM, potassium cacodylate 60 mM pH 7.2
Experimental: as §1

[3] = system: duplex; experiment: FRET melting assay, duplex DNA; assay type: binding; conditions: dual-labeled DNA 0.2 μM, DMZ analogues 1 μM, potassium cacodylate 60 mM pH 7.2
Experimental: as §1

[4] = system: MDA-MB-231; experiment: WST-1 IC50 determination, MDA-MB-231; assay type: cell-based, human; conditions: 72 hours, WST-1; for IC50: read-out: Anticancer activity IC50 ± SD, MDA-MB-231
Experimental: (§2) Cell lines and culturing. The following human cell lines were purchased from ATCC (ATCC, Manassas, Va.): prostate cancer cells (PC-3), triple negative breast cancer cells (MDA-MB-231), ovarian cancer cells (OVCAR-3), normal bone marrow (NBM) and normal fibroblast cells (MCR5A). MDA-MB-231 cells were grown at 37° C. with 5% CO2 atmosphere with DMEM (Life technologies, Carlsbad, Calif.) supplemented with heat-inactivated 10% (V/V) fetal bovine serum. OVCAR-3 and PC-3 cells were grown at 37° C. with 5% CO2 atmosphere with RPMI (Life technologies, Carlsbad, Calif.) supplemented with heat-inactivated 10% (V/V) fetal bovine serum. Cell lines were grown and maintained according to ATCC recommendations.
(§3) IC50 determination. Cell lines were seeded into 96-well plates the afternoon prior to treatment. Cell seeding number was determined by growing cells in log phase growth during drug treatment. Approximately 18 hours later, compounds were semi-serially diluted in dimethyl sulfoxide (DMSO) and then growth medium, and added to cells. Plates were incubated for 72 hours prior to addition of WST-1 (Promega, Madison Wis.). Plates were read after 4 additional hours of incubation at 37° C. using a Bio-Tek Synergy HT plate reader (Bio-Tek, Winooski, Vt.). Data was analyzed, graphed and IC50s generated using GraphPad Prism Software (Graphpad, La Jolla, Calif.).
(§4) IC50 determination: For the determination of IC50 for the azolamide class, the same protocol as described previously was followed.

[5] = system: PC-3; experiment: WST-1 IC50 determination, PC-3; assay type: cell-based, human; conditions: 72 hours, WST-1; for IC50: read-out: Anticancer activity IC50 ± SD, PC-3
Experimental: as §2, §3, §4

[6] = system: c-MYC Pu27; experiment: PCR stop assay, Pu27 template; assay type: biochemical
Experimental: (§5) PCR Stop Assay. This assay was performed by modifying a previously published protocol.
(§6) To the PCR reaction mixture (25 μL), 1×PCR buffer (New England Biolabs), 5 μM Pu27 and Pu27rev oligomers, various concentrations of ligands (DMZ, TMPyP4, DMZ1, DMZ9 and DMZ13) were added and incubated at 4° C. for 6 h. After that, 1 mM dNTPs, 5 units of Taq DNA polymerase (New England Biolabs) were added and PCR reactions were performed in a thermocycler, with the following conditions: 94° C. for 3 min, followed by 20 repeated cycles each having 94° C. for 30 s, 58° C. for 30 s, and 72° C. for 30 s. After PCR, amplified products were analyzed on 12% polyacrylamide gel with 1×TBE and SYBR Gold stained. This assay was also performed under the same conditions with Pu27-13,14 and Pu27rev.

[7] = system: Pu27-13,14; experiment: PCR stop assay, mutated control template; assay type: biochemical
Experimental: as §5, §6

[8] = system: 8 bp AT; experiment: 1H-NMR of duplex DNA with ligand; assay type: binding; conditions: ligand 150 μM, DNA 300 μM
Experimental: (§7) NMR measurements for DNA binding of triazene ligands. The procedure was followed as described previously. The ligand concentration was 150 μM, and that of the DNA (c-kit1 or 8 bp AT) was […]. The buffer used was 10 mM potassium phosphate (pH 7.5) containing 137 mM NaCl, 1 mM EDTA, and also contained 10% D2O. The sample was initially heated up to 95° C. for 5 min without the ligand and then cooled down to room temperature in 15 min. Subsequently, the sample was incubated at 4° C. for ˜12 h without the ligand (for G-quadruplex formation). Then, the ligand was added and incubated for 2 h before the NMR measurement (25° C.).
(§8) NMR of DNA/DNA analogue complexes. NMR of spectra (c-kit1 or 8 bp A T) in absence or presence of ligands were obtained following precedent. The sample solution containing c-kit1 (300 μM), D2O (10%, v/v), NaCl (137 mM), EDTA (1 mM) and potassium phosphate buffer (10 mM, pH 7.5) was heated up to 95° C. for 5 min, then cooled down to room temperature, and subsequently incubated for another 12 hours at 4° C. The DMZ analogue (150 μM) was then added and incubated for 2 hours at 4° C. The ^1H NMR spectra were recorded at 25° C., using NaOAc as an internal standard (NaOAc was in a sealed capillary tube that was inserted in the NMR tube). The ^1H NMR spectra was recorded on Bruker Avance III HD 800 MHz spectrometer with a CPQCI cryoprobe.

[9] = system: OVCAR-3; experiment: WST-1 IC50 determination, OVCAR-3; assay type: cell-based, human; conditions: 72 hours, WST-1; for IC50: read-out: Anticancer activity IC50 ± SD, OVCAR-3
Experimental: as §2, §3, §4

[10] = system: k-RAS21R; experiment: FRET melting assay, k-RAS21R; assay type: binding; conditions: dual-labeled DNA 0.2 μM, DMZ analogues 1 μM, potassium cacodylate 60 mM pH 7.2
Experimental: as §1

[11] = system: c-kit1; experiment: 1H-NMR of c-kit1 with ligand; assay type: binding; conditions: ligand 150 μM, DNA 300 μM
Experimental: as §7, §8

[12] = system: c-kit2; experiment: FRET melting assay, c-kit2; assay type: binding; conditions: dual-labeled DNA 0.2 μM, DMZ analogues 1 μM, potassium cacodylate 60 mM pH 7.2
Experimental: as §1

Row | Structure (SMILES) | ΔTm F21T [1] [°C] | ΔTm c-MYC [2] [°C] | ΔTm duplex [3] | IC50 [4] [µM] | IC50 [5] [µM] | polymerization/extension of oligomers Pu27 and Pu27rev ([6]; 100 μM compound) | PCR product with non-G-quadruplex template ([7]; 100 μM compound) | change of duplex DNA imino proton NMR spectrum [8] | IC50 [9] [µM] | ΔTm k-RAS21R [10] | change of c-kit1 imino proton NMR spectrum [11] | ΔTm c-kit2 [12] [°C] | Anticancer activity IC50 ± SD, MDA-MB-231 [4] | Anticancer activity IC50 ± SD, PC-3 [5] | polymerization/extension of oligomers Pu27 and Pu27rev ([6]; 25 μM compound) | PCR product with non-G-quadruplex template ([7]; 25 μM compound) | IC50 ([9]; Homo sapiens, OVCAR-3) [µM] | Anticancer activity IC50 ± SD, OVCAR-3 [9]
1 | N=C(N)c1ccc(/N=N/Nc2ccccc2C#Cc2ccc(F)cc2)cc1 [DMZ13] | 4.20 ± 0.00 | 7.15 ± 0.00 | NE (NE means not effective binding (ΔTm < 1° C.)) | 6.2 ± 1 | 7.4 ± 0.2 | completely inhibited | amplified PCR product was observed | no change was observed | 9.5 ± 2.2 | 2.01 ± 0.00 °C | changes in peak positions and shapes | 5.12 ± 0.26 | – | – | – | – | – | –
2 | N=C(N)c1ccc(/N=N/Nc2ccc(C(=N)N)cc2)cc1 [DMZ, Diminazene aceturate, reference compound] | 10.05 ± 0.52 | 12.97 ± 0.26 | 6.4 °C | – | – | – | – | considerable changes in the imino region | – | 18.3 °C and 18.27 ± 0.52 °C | direct binding | 11.70 ± 0.26 | NE (NE means not effective. Cell viability was the same or greater than 75% of the DMSO control at 20 μM compound concentration.) | NE (NE means not effective. Cell viability was the same or greater than 75% of the DMSO control at 20 μM compound concentration.) | showed inhibition | amplified PCR product was observed | > 25 | –
3 | N=C(N)c1ccc(N=NNc2cccc(C#Cc3ccc(F)cc3)c2)cc1 [DMZ9] | 4.20 ± 0.00 | 8.22 ± 0.45 | NE (NE means not effective binding (ΔTm < 1° C.)) | 5.5 ± 0.1 | 5.3 ± 1.6 | completely inhibited | amplified PCR product was observed | no change was observed | 5 ± 0.1 | 6.58 ± 1.29 °C | changes in peak positions and shapes | 5.67 ± 0.26 | – | – | – | – | – | –
4 | N=C(N)c1ccc(NN=Nc2ccccc2)cc1 [DMZ1] | 4.20 ± 0.00 | 7.87 ± 0.53 | – | – | – | – | – | only DMZ (but not Triazene-1) showed considerable changes | – | 5.47 ± 0.93 °C | direct binding | 6.40 ± 0.26 | NE (NE means not effective. Cell viability was the same or greater than 75% of the DMSO control at 20 μM compound concentration.) | NE (NE means not effective. Cell viability was the same or greater than 75% of the DMSO control at 20 μM compound concentration.) | – | – | – | NE (NE means not effective. Cell viability was the same or greater than 75% of the DMSO control at 20 μM compound concentration.)
